From PubChem BioAssay (NCI)
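Grown in 96-well plates, cells were treated for 48 hours with each compound at five concentrations. Insufficient inhibition: endpoint recorded as highest concentration tested. At the GI50, growth is halved. Definition used: TGI = concentration required for complete inhibition of growth.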

What was measured:
Assay in all cases: NCI anticancer screen, dose series, 48 h
[1] = tested on: A498 renal
[2] = tested on: SF-539 CNS
[3] = tested on: SNB-75 CNS
[4] = tested on: K-562 leukemia
[5] = tested on: SR leukemia
[6] = tested on: MCF7 breast
[7] = tested on: OVCAR-4 ovarian
[8] = tested on: COLO 205 colon
[9] = tested on: MDA-MB-435
[10] = tested on: NCI-H460 lung

SMILES: OCC1OC(n2ccc3c2ncn2ncnc32)C(O)C1O (centres undefined)
- GI50 [1]: 0.205 µM
- TGI [1]: 2.37 µM
- GI50 [2]: 2.13 µM
- TGI [2]: 57.3 µM
- GI50 [3]: 4.2 µM
- TGI [3]: 68.7 µM
- GI50 [4]: 2.07 µM
- TGI [4]: > 100 µM
- GI50 [5]: 2.96 µM
- TGI [5]: > 68.8 µM
- GI50 [6]: 0.183 µM
- TGI [6]: 20.4 µM
- GI50 [7]: 5.1 µM
- TGI [7]: 63.1 µM
- GI50 [8]: 2.77 µM
- TGI [8]: 19.1 µM
- GI50 [9]: 6.5 µM
- TGI [9]: > 100 µM
- GI50 [10]: 2.25 µM
- TGI [10]: > 100 µM

SMILES: O=c1cc(CNc2cc(F)cc(F)c2)c2ccc(I)cc2[nH]1
- GI50 [1]: 0.279 µM
- GI50 [2]: 0.461 µM
- TGI [2]: > 69.9 µM
- GI50 [3]: 0.199 µM
- TGI [3]: 3.45 µM
- GI50 [4]: 0.203 µM
- TGI [4]: > 100 µM
- GI50 [5]: 0.129 µM
- TGI [5]: > 100 µM
- GI50 [6]: 0.388 µM
- TGI [6]: > 100 µM
- GI50 [7]: 72.7 µM
- TGI [7]: > 100 µM
- GI50 [8]: 0.606 µM
- TGI [8]: > 100 µM
- GI50 [9]: 0.108 µM
- TGI [9]: 0.499 µM
- GI50 [10]: 0.427 µM
- TGI [10]: > 100 µM

SMILES: O=S(=O)(c1ccc(NC(=S)NCc2cccnc2)cc1)N1CCCCC1
- GI50 [1]: 15 µM
- TGI [1]: > 100 µM
- GI50 [2]: 0.446 µM
- TGI [2]: > 100 µM
- GI50 [3]: 25.6 µM
- TGI [3]: > 100 µM
- GI50 [4]: 1.38 µM
- TGI [4]: > 100 µM
- GI50 [5]: 36.8 µM
- TGI [5]: > 100 µM
- GI50 [6]: 12.7 µM
- TGI [6]: > 100 µM
- GI50 [7]: 23 µM
- TGI [7]: > 100 µM
- GI50 [8]: 8.63 µM
- TGI [8]: > 100 µM
- GI50 [9]: 3.04 µM
- TGI [9]: > 100 µM
- GI50 [10]: 7.67 µM
- TGI [10]: > 100 µM

SMILES: CC1Oc2cc3c(-c4c(O)cc(O)c5c(O)c6c(cc45)OC(C)C(C)C6=O)c(O)cc(O)c3c(O)c2C(=O)C1C (centres undefined)
- TGI [1]: 0.784 µM
- TGI [2]: 0.645 µM
- TGI [3]: 0.557 µM
- TGI [4]: 0.627 µM
- TGI [5]: 0.429 µM
- TGI [6]: 3.75 µM
- TGI [7]: 4.98 µM
- TGI [8]: 0.39 µM
- TGI [9]: 1.16 µM
- TGI [10]: 0.163 µM

SMILES: NC(=O)[C@H]1CCN(c2ncnc(N)c2F)C[C@@H]1N1CCC[C@@H](Nc2cc(Cl)cc(C(F)(F)F)c2)C1=O
- GI50 [1]: 3.25 µM
- TGI [1]: 18.7 µM
- GI50 [2]: 14.5 µM
- TGI [2]: 33.2 µM
- GI50 [3]: 12.6 µM
- TGI [3]: 39.1 µM
- GI50 [4]: 18.4 µM
- TGI [4]: > 100 µM
- GI50 [5]: 28.1 µM
- TGI [5]: 83.8 µM
- GI50 [6]: 13.1 µM
- TGI [6]: 52.4 µM
- GI50 [7]: 15.6 µM
- TGI [7]: 95.3 µM
- GI50 [8]: 5.24 µM
- TGI [8]: 34.2 µM
- GI50 [9]: 14.3 µM
- TGI [9]: 39.5 µM
- GI50 [10]: 18.4 µM
- TGI [10]: 41.6 µM

SMILES: c1ccc2[nH]c(-c3ccc(N4CCN(c5ccc(-c6nc7ccccc7[nH]6)cc5)CC4)cc3)nc2c1
- GI50 [1]: 54.8 µM
- TGI [1]: > 100 µM
- GI50 [2]: > 100 µM
- TGI [2]: > 100 µM
- GI50 [3]: > 100 µM
- TGI [3]: > 100 µM
- GI50 [4]: 38.4 µM
- TGI [4]: > 100 µM
- GI50 [5]: 3.08 µM
- TGI [5]: 6.85 µM
- GI50 [6]: 34.5 µM
- TGI [6]: > 100 µM
- GI50 [7]: > 100 µM
- TGI [7]: > 100 µM
- GI50 [8]: > 100 µM
- TGI [8]: > 100 µM
- GI50 [9]: > 100 µM
- TGI [9]: > 100 µM
- GI50 [10]: > 100 µM
- TGI [10]: > 100 µM

SMILES: CCN1C(=O)N(CC)C2C1NN=c1s/c(=C3\C(=O)N(C(C)C)c4ccccc43)c(=O)n12 (centres undefined)
- GI50 [1]: 0.239 µM
- TGI [1]: 0.91 µM
- GI50 [2]: 0.24 µM
- TGI [2]: 0.706 µM
- GI50 [3]: 0.317 µM
- TGI [3]: 20.9 µM
- GI50 [4]: 0.329 µM
- TGI [4]: > 100 µM
- GI50 [5]: 0.426 µM
- TGI [5]: > 100 µM
- GI50 [6]: 0.396 µM
- TGI [6]: > 100 µM
- GI50 [7]: 1.6 µM
- TGI [7]: > 100 µM
- GI50 [8]: 0.337 µM
- TGI [8]: 1.8 µM
- GI50 [9]: 0.192 µM
- TGI [9]: 0.487 µM
- GI50 [10]: 0.354 µM
- TGI [10]: > 100 µM

SMILES: Nc1nc(/C=C\c2ccc([N+](=O)[O-])o2)nc(N2CCN(c3ccccc3)CC2)n1
- GI50 [1]: 21.5 µM
- TGI [1]: 49.4 µM
- GI50 [2]: 16.7 µM
- TGI [2]: 34 µM
- GI50 [3]: 20.9 µM
- TGI [3]: 47 µM
- GI50 [4]: 4.63 µM
- TGI [4]: 26.7 µM
- GI50 [5]: 3.59 µM
- TGI [5]: 83 µM
- GI50 [6]: 3.07 µM
- TGI [6]: 29.1 µM
- GI50 [7]: 27.2 µM
- TGI [7]: > 100 µM
- GI50 [8]: 2.88 µM
- TGI [8]: 21.9 µM
- GI50 [9]: 3.98 µM
- TGI [9]: 26 µM
- GI50 [10]: 3.09 µM
- TGI [10]: > 100 µM

SMILES: CCN(CC)CCOc1ccc(C(=C(C)c2ccc(Cl)cc2)c2ccc(OCCN(CC)CC)cc2)cc1
- GI50 [1]: 1.79 µM
- TGI [1]: 6.12 µM
- GI50 [2]: 0.59 µM
- TGI [2]: 1.1 µM
- GI50 [3]: 0.0499 µM
- TGI [3]: 1.66 µM
- GI50 [4]: 0.627 µM
- TGI [4]: 1.74 µM
- GI50 [5]: 0.484 µM
- TGI [5]: 1.25 µM
- GI50 [6]: 0.445 µM
- TGI [6]: 0.966 µM
- GI50 [7]: 0.586 µM
- TGI [7]: 1.32 µM
- GI50 [8]: 0.581 µM
- TGI [8]: 1.16 µM
- GI50 [9]: 0.558 µM
- TGI [9]: 1.02 µM
- GI50 [10]: 0.63 µM
- TGI [10]: 1.18 µM

SMILES: Fc1ccc2[nH]cc(Cc3c[nH]c4ccc(F)cc34)c2c1
- GI50 [1]: 15 µM
- TGI [1]: 31.8 µM
- GI50 [2]: 15.7 µM
- TGI [2]: 33.6 µM
- GI50 [3]: 29 µM
- TGI [3]: 85.6 µM
- GI50 [4]: 32.4 µM
- TGI [4]: > 100 µM
- GI50 [5]: 31.1 µM
- TGI [5]: > 100 µM
- GI50 [6]: 35.6 µM
- TGI [6]: > 100 µM
- GI50 [7]: 32 µM
- TGI [7]: > 100 µM
- GI50 [8]: 28.2 µM
- TGI [8]: 95.6 µM
- GI50 [9]: 7.46 µM
- TGI [9]: 24.9 µM
- GI50 [10]: 25.3 µM
- TGI [10]: > 100 µM

SMILES: CC(=O)OC1c2ccccc2CC2(OC(C)=O)c3ccccc3C12 (centres undefined)
- TGI [1]: > 100 µM
- TGI [2]: > 100 µM
- TGI [3]: > 100 µM
- TGI [4]: > 100 µM
- TGI [5]: > 100 µM
- TGI [6]: > 100 µM
- TGI [7]: > 100 µM
- TGI [8]: > 100 µM
- TGI [9]: > 100 µM
- TGI [10]: > 100 µM

SMILES: N#Cc1ncc(/N=C/c2ccc(N(CCCl)CCCl)cc2)s1
- GI50 [1]: 1.63 µM
- TGI [1]: 4.4 µM
- GI50 [2]: 16.8 µM
- TGI [2]: > 100 µM
- GI50 [3]: 17.6 µM
- TGI [3]: > 100 µM
- GI50 [4]: 7.51 µM
- TGI [4]: > 100 µM
- GI50 [5]: 0.543 µM
- TGI [5]: > 100 µM
- GI50 [6]: 8.85 µM
- TGI [6]: > 100 µM
- GI50 [7]: 41.8 µM
- TGI [7]: > 100 µM
- GI50 [8]: 64 µM
- TGI [8]: > 100 µM
- GI50 [9]: 28.4 µM
- TGI [9]: > 100 µM
- GI50 [10]: 3.31 µM
- TGI [10]: 66.8 µM

SMILES: CN(C)CCNC(=O)c1cccn2c(=O)c3cc4ccccc4cc3nc12
- GI50 [1]: 0.122 µM
- TGI [1]: 0.667 µM
- GI50 [2]: 0.161 µM
- TGI [2]: 1.6 µM
- GI50 [3]: 0.28 µM
- TGI [3]: 1.77 µM
- GI50 [4]: 0.208 µM
- TGI [4]: 40.8 µM
- GI50 [5]: 0.0457 µM
- TGI [5]: > 100 µM
- GI50 [6]: 0.232 µM
- TGI [6]: > 100 µM
- GI50 [7]: 0.323 µM
- TGI [7]: 7.67 µM
- GI50 [8]: 0.0973 µM
- TGI [8]: 0.246 µM
- GI50 [9]: 0.181 µM
- TGI [9]: 1.19 µM
- GI50 [10]: 0.0439 µM
- TGI [10]: 0.283 µM
